Data from patent US7320981B2, “Variolin derivatives as anti-cancer agents” (Pharma Mar, S.A., priority 2000, dated 2008).
Like-named read-outs stand apart in the source and are kept apart here.

How the values were obtained:
A-549 = test: SRB cell growth/viability assay, A-549; conditions: for GI50: read-out: A-549 GI50
Description: (§1) A colorimetric type of assay, using sulforhodamine B (SRB) reaction has been adapted for a quantitative measurement of cell growth and viability: see Skehan, P. A. et al. J. Natl. Cancer Inst., 1990, 82, 1107-1112. This form of the assay employs 96 well cell culture microplates of 9 mm diameter (Faircloth, G. T.; Stewart, D. and Clement, J. J., Journal of Tissue and Culture Methods, 1983, 11, 201-205; Mosmann, T. Journal of Immunological Methods, 1983, 65, 55-63.).
(§2) Most of the cell lines are obtained from American Type Culture Collection (ATCC) derived from different human cancer types. Cells are maintained in RPMI 1640 10% FBS, supplemented with 0.1 g/l penicillin and 0.1 g/l streptomycin sulfate and then incubated at 37° C., 5% CO2 and 98% humidity. For the experiments, cells were harvested from subconfluent cultures using trypsin and resuspended in fresh medium before plating.
(§3) Cells are seeded in 96 well microtiter plates, at 5×10^3 cells per well in aliquots of 195 μl medium, and they are allowed to attach to the plate surface by growing in drug free medium for 18 hours. Afterward, samples are in aliquots of 5 pi in a ranging from 10 to 10-8 μg/ml dissolved in DMSO/EtOH (0.2% in PS buffer). After 48 hours exposure, the antitumour effect are measured by the SRB methodology: cells are fixed by adding 50 μl of cold 50% (w/v) trichloroacetic acid (TCA) and incubating for 60 minutes at 4° C. Plates are washed with deionized water and dried. 100 μl of SRB solution (0.4% w/v in 1% acetic acid) is added to each microtiter well and incubated for 10 minutes at room temperature. Unbound SRB is removed by washing with 1% acetic acid. Plates are air-dried and bound stain is solubilized with Tris buffer. Optical densities are read on an automated spectrophotometric plate reader at a single wavelength of 490 nm.
(§4) The values for mean +/− SD of data from triplicate wells are calculated Some parameters for cellular responses can be calculated: […], TGI=total growth inhibition (cytostatic effect) and LC=cell killing (cytotoxic effect).

HT-29 = test: SRB cell growth/viability assay, HT-29; conditions: for GI50: read-out: HT-29 GI50
Description: as §1, §2, §3, §4

[1] = Homo sapiens, A549, 48 h, read-out: A-549 LC50
[2] = Homo sapiens, HT-29, 48 h, read-out: HT-29 LC50

| Compound | GI50 (A-549; Homo sapiens, A549, 48 h) | CC50 (A-549; [1]) | GI50 (HT-29; Homo sapiens, HT-29, 48 h) | CC50 (HT-29; [2]) | CC50 (A-549) | GI50 (A-549; Table 2, A-549, 48 hours exposure, SRB) | CC50 (HT-29) | GI50 (HT-29; Table 2, HT-29, 48 hours exposure, SRB) |
| --- | --- | --- | --- | --- | --- | --- | --- | --- |
| Nc1nccc2c(-c3ccnc(N(C(=O)/C=C/c4ccccc4)C(=O)/C=C/c4ccccc4)n3)c3cccnc3n12 [Compound 24a, N′-biscinnamoyldeoxyvariolin] | 0.12 µM | 12 µM | 4.9 µM | > 120 µM |  |  |  |  |
| O=C(C=Cc1ccccc1)Nc1nccc2c(-c3ccnc(N(C(=O)/C=C/c4ccccc4)C(=O)/C=C/c4ccccc4)n3)c3cccnc3n12 [Compound 24b, N′-biscinnamoyl-N-cinnamoyldeoxyvariolin] | 3 µM | 75 µM | 1.5 µM | 75 µM |  |  |  |  |
| Nc1nccc2c(-c3ccnc(NC(=O)C(F)(F)F)n3)c3cccnc3n12 [Compound 26, N′-trifluoroacetyldeoxyvariolin] | 0.27 µM | 27 µM | 0.8 µM | 110 µM |  |  |  |  |
| COc1nccc(-c2c3cccnc3n3c(N)nccc23)n1 [Compound 27, methoxydeoxyvariolin] | 0.068 µM | 2.7 µM | 0.17 µM | 34 µM |  |  |  |  |
| Nc1nccc2c(-c3ccnc(N4CCCCC4)n3)c3cccnc3n12 [Compound 28a, piperidinyldeoxyvariolin] | 8.7 µM | > 29 µM | 5.8 µM | > 29 µM |  |  |  |  |
| CCNc1nccc(-c2c3cccnc3n3c(N)nccc23)n1 [Compound 28b, N′-ethyldeoxyvariolin] | > 33 µM | > 33 µM | > 33 µM | > 33 µM |  |  |  |  |
| CCCCN(C)c1nccc(-c2c3cccnc3n3c(N)nccc23)n1 [Compound 28c, N′-butylmethyldeoxyvariolin] | 2.9 µM | 23 µM | 2.9 µM | 23 µM |  |  |  |  |
| Nc1nccc2c(-c3ccnc(NCc4ccccc4)n3)c3cccnc3n12 [Compound 28d, N′-benzyldeoxyvariolin] | 1.4 µM | 27 µM | 1.4 µM | 22 µM |  |  |  |  |
| COc1ccc(CNc2nccc(-c3c4cccnc4n4c(NCc5ccc(OC)cc5)nccc34)n2)cc1 [Compound 29, N′,N-bis(p-methoxybenzyl)deoxyvariolin] | > 97 µM | > 97 µM | > 97 µM | > 97 µM |  |  |  |  |
| bis-sulfinyldeoxyvariolin [Compound 20] |  |  |  |  | > 130 µM | 54 µM | > 130 µM | 110 µM |
